# Laboratory results: patent US20250032490A1, “THERAPEUTIC REGIMENS FOR TREATMENT OF PAROXYSMAL NOCTURNAL HEMOGLOBINURIA” (Achillion Pharmaceuticals, Inc., priority 2017, published 2025)
# Tested on: rabbit erythrocytes
# Experiment: CAP-mediated hemolysis assay with rabbit erythrocytes
# Format: cell-based
# Conditions: Oryctolagus cuniculus, Erythrocyte; for inhibition at 0.00234 µM: Compound 1 0.00234 μM; for inhibition at 0.00469 µM: Compound 1 0.00469 μM; for inhibition at 0.00938 µM: Compound 1 0.00938 μM; for inhibition at 0.0188 µM: Compound 1 0.0188 μM; for inhibition at 0.0375 µM: Compound 1 0.0375 μM; for inhibition at 0.075 µM: Compound 1 0.075 μM; for inhibition at 0.15 µM: Compound 1 0.15 μM; for inhibition at 0.75 µM: Compound 1 0.75 μM
# Experimental: Inhibition was analyzed by the method of Prichard and Shipman (Prichard, M. N. and C. Shipman, Jr. A Three-Dimensional Model to Analyze Drug-Drug Interactions. Antiviral Research 1990, 14:181-205) Three-dimensional surface graphs of each experiment were generated and analyzed using an Excel spreadsheet program adapted from the MacSynergy II spreadsheet (University of Alabama, Birmingham, AL). The X-axis and Y-axis of each surface graph represent the concentrations of the two test compounds, and the Z-axis represents the difference between measured inhibition and a theoretically determined additive inhibition. For an additive relationship, the surface graph resembles a horizontal plane at Z=0, whereas positive surface peaks indicate greater inhibition than expected and therefore synergy, and negative surface peaks indicate less inhibition than expected and therefore antagonism.
# Synergy and antagonism volumes were calculated separately as the summed volumes of peaks respectively above and below the Z=0 plane. Volumes were determined using 95% confidence limits to assure significance.
# Inhibition was analyzed by the method of Chou and Talalay (Chou, T.-C. and P. Talalay. Analysis of Combined Drug Effects: A New Look at a Very Old Problem. Trends Pharmacol. Sci. 1983, 4:450-454; Chou, T. C. Theoretical basis, experimental design, and computerized simulation of synergism and antagonism in drug combination studies. Pharmacological Reviews 2006, 58:621-681). Analysis using the median-effect equation of Chou and Talalay was performed with CompuSyn software (ComboSyn, Inc, Paramus, NJ). […] Three constant ratios were analyzed in each experiment, centered approximately at the ratio of the individual IC50 values for the two compounds and ranging two-fold higher and lower. […] Combination index (CI) values were determined at inhibition values of 50%, 75%, and 90%. Interactions were considered additive for CI values between 0.9 and 1.1. […] Interactions were considered slightly antagonistic for CI values between 1.1 and 1.2, moderately antagonistic for CI values between 1.2 and 1.45; antagonistic for CI values between 1.45 and 3.3, and strongly antagonistic for CI values between 3.3 and 10.
# Compstatin was obtained from Tocris Bioscience (Bristol, UK). The murine monoclonal antibody to human C5, isotype IgGIK, was obtained as product number A217 from Quidel (San Diego, CA). FUT-175 (nafamostat) was obtained from Calbiochem EMD Millipore (Billerica, MA).
# Anti-C5 (murine monoclonal antibody to human C5, isotype IgGIK, product No. A217 from Quidel, San Diego, CA) was obtained as a 1.1 mg/mL stock in buffered saline. Gelatin veronal buffer (GVB) without Ca^++ and Mg (GVB^0), 100 mM MgCl2+100 mM EGTA (MgEGTA), normal human serum (NHS), and 5×10^8/mL rabbit erythrocytes (Er) were obtained from Complement Technology Inc. (Tyler, TX).
# GVB^0·MgEGTA was prepared by mixing GVB^0 and 100 mM MgEGTA in a 9:1 ratio. Er cells were used within two weeks of purchase; before each assay cells were collected by centrifugation at 800×g and 4° C. for 3 minutes and the buffer was replaced with equal volume fresh cold GVB^0·MgEGTA.
# Each of the 64 possible combinations of compounds at varying concentrations was tested in duplicate or triplicate wells. […] 50 μL GVB^0·MgEGTA was added to each well, followed by 50 μL 20% NHS in GVB^0·MgEGTA. The plates were sealed, mixed on a microtiter plate shaker, and incubated at 37° C. for 15 minutes. 20 μL Er was then added to each well and the plates were sealed, mixed, and incubated at 37° C. for 30 minutes with an added shaking at 15 minutes. The following controls were each included in quadruplicate: 2.4 μL DMSO+120 μL GVB^0·MgEGTA (representing background signal); 2.4 μL DMSO+100 μL GVB^0·MgEGTA+20 μL Er (no serum, representing 0% CAP-mediated lysis); 2.4 μL DMSO+50 μL GVB^0·MgEGTA+50 μL 20% NHS+20 μL Er (no compound, representing 100% CAP-mediated lysis); and 2.4 μL DMSO+100 μL H2O+20 μL Er (osmotic lysis, representing maximal lysis). […]
# [1] = Experiment 2, Compstatin 0-30 μM
# [2] = Experiment 3, Compstatin 0-30 μM
# [3] = Experiment 4, Compstatin 0-30 μM
structure (smiles),measurement,setting,value
"CC(=O)c1nn(CC(=O)N2C[C@H](F)C[C@H]2C(=O)Nc2cccc(Br)n2)c2ccc(-c3cnc(C)nc3)cc12 [Compound 1, (2S,4R)-1-(2-(3-acetyl-5-(2-methylpyrimidin-5-yl)-1H-indazol-1-yl)acetyl)-N-(6-bromopyridin-2-yl)-4-fluoropyrrolidine-2-carboxamide]",inhibition at 0.00234 µM,[1],0%
same,inhibition at 0.00234 µM,"Experiment 2, FUT-175 0-40 μM",5%
same,inhibition at 0.00469 µM,[1],0%
same,inhibition at 0.00469 µM,"Experiment 2, FUT-175 0-40 μM",7%
same,inhibition at 0.00938 µM,[1],3.2%
same,inhibition at 0.00938 µM,"Experiment 2, FUT-175 0-40 μM",13%
same,inhibition at 0.0188 µM,[1],16%
same,inhibition at 0.0188 µM,"Experiment 2, FUT-175 0-40 μM",31%
same,inhibition at 0.0375 µM,[1],45%
same,inhibition at 0.0375 µM,"Experiment 2, FUT-175 0-40 μM",70%
same,inhibition at 0.075 µM,[1],72%
same,inhibition at 0.15 µM,[1],91%
same,inhibition at 0.15 µM,"Experiment 2, FUT-175 0-40 μM",98%
same,inhibition at 0.75 µM,"Experiment 2, FUT-175 0-40 μM",95%
same,inhibition at 0.00234 µM,[2],3%
same,inhibition at 0.00234 µM,"Experiment 3, FUT-175 0-40 μM",11%
same,inhibition at 0.00469 µM,[2],7.7%
same,inhibition at 0.00469 µM,"Experiment 3, FUT-175 0-40 μM",17%
same,inhibition at 0.00938 µM,[2],22%
same,inhibition at 0.00938 µM,"Experiment 3, FUT-175 0-40 μM",32%
same,inhibition at 0.0188 µM,[2],41%
same,inhibition at 0.0188 µM,"Experiment 3, FUT-175 0-40 μM",54%
same,inhibition at 0.037 µM,"Experiment 3, Compound 1 0.037 μM, FUT-175 0-40 μM",94%
same,inhibition at 0.0375 µM,[2],73%
same,inhibition at 0.075 µM,[2],96%
same,inhibition at 0.15 µM,[2],98%
same,inhibition at 0.15 µM,"Experiment 3, FUT-175 0-40 μM",98%
same,inhibition at 0.75 µM,"Experiment 3, FUT-175 0-40 μM",98%
same,inhibition at 0.00234 µM,[3],0.8%
same,inhibition at 0.00469 µM,[3],7.1%
same,inhibition at 0.00938 µM,[3],20%
same,inhibition at 0.0188 µM,[3],41%
same,inhibition at 0.0375 µM,[3],81%
same,inhibition at 0.075 µM,[3],97%
same,inhibition at 0.15 µM,[3],99%
same,inhibition at 0.00234 µM,"Experiment #1, FUT-175 0-40 μM",4.5%
same,inhibition at 0.00469 µM,"Experiment #1, FUT-175 0-40 μM",8.3%
same,inhibition at 0.0093 µM,"Experiment #1, Compound 1 0.0093 μM, FUT-175 0-40 μM",16%
same,inhibition at 0.0188 µM,"Experiment #1, FUT-175 0-40 μM",31%
same,inhibition at 0.0234 µM,"Experiment #1, Compound 1 0.0234 μM, Compstatin 0-30 μM",27%
same,inhibition at 0.0375 µM,"Experiment #1, FUT-175 0-40 μM",44%
same,inhibition at 0.0469 µM,"Experiment #1, Compound 1 0.0469 μM, Compstatin 0-30 μM",44%
same,inhibition at 0.0938 µM,"Experiment #1, Compound 1 0.0938 μM, Compstatin 0-30 μM",75%
same,inhibition at 0.15 µM,"Experiment #1, FUT-175 0-40 μM",96%
same,inhibition at 0.188 µM,"Experiment #1, Compound 1 0.188 μM, Compstatin 0-30 μM",91%
same,inhibition at 0.375 µM,"Experiment #1, Compound 1 0.375 μM, Compstatin 0-30 μM",98%
same,inhibition at 0.75 µM,"Experiment #1, Compstatin 0-30 μM",98%
same,inhibition at 0.75 µM,"Experiment #1, FUT-175 0-40 μM",79%
same,inhibition at 1.5 µM,"Experiment #1, Compound 1 1.5 μM, Compstatin 0-30 μM",98%
